# Results as given in patent US10132796B2, “Method for detecting and quantifying a target molecule in a tissue” (IMABIOTECH, priority 2011, dated 2018).
# Assay: Quantification of propranolol in a treated mouse kidney by MALDI mass spectrometry imaging
# Type: in vivo
# Settings: mouse treated with 7.5 mg/kg propranolol, sacrificed 20 minutes post-administration, kidney slices 20 μm, calibration curve from reconstituted kidney
# Protocol: A mouse kidney treated with 7.5 mg/kg of propranolol, and sacrificed 20 minutes post-administration, is taken.
# Three 20 μm thick tissue slices are produced from the kidney and are each deposited on a support (slide ITO).
# MALDI DHB matrix (40 mg/ml methanol/TFA 0.1% 1/1) is sprayed using a robotized system (SunCollect) onto the slices.
# Each slice is analysed by mass spectrometry imaging, using an Autoflex speed LRF (Bruker, Daltonics). The average intensity of the peaks of the mass spectrum of the propranolol (m/z 260.2) is computed, by once again using a number of ROIs on each slice, all dimensions being the same.
# The average intensity value obtained is 19633.3.
# The propranolol concentration in the kidney is quantified using the calibration curve equation (FIG. 2), by including the average intensity value obtained on said straight line. The propranolol here is in a concentration of 5.9 μg/g of tissue.
smiles,measurement,value
CC(C)NCC(O)COc1cccc2ccccc12 (stereo not shown) [propranolol],propranolol concentration in the kidney,5.9 μg/g of tissue
